Laboratory results as given in ChEMBL document CHEMBL1146480, “Antimycobacterial Naphthopyrones from Senna obliqua” (2004).
Converted amounts (≈) assume the structure as drawn.

Columns and labels:
[1] = tested on: Mycobacterium tuberculosis; test: Antimycobacterial activity against Mycobacterium tuberculosis ATCC 27294 in radiometric culture by NCCLS method; type: functional
[2] = tested on: Mycobacterium tuberculosis; test: Antimycobacterial activity against Mycobacterium tuberculosis ATCC 27294 in radiometric culture at 50 ug/ml by NCCLS method; type: functional

| SMILES | MIC [1] | inhibition at 50 µg/mL [2] |
| --- | --- | --- |
| COc1cc(O)c2c(O)c3c(=O)cc(C)oc3cc2c1C [QUINQUANGULIN] | 12 µg/mL (≈ 41.9 µM) | 99% |
| COc1cc(O)c2c(O)c3c(=O)cc(C)oc3cc2c1 [RUBROFUSARIN] | 12 µg/mL (≈ 44.1 µM) | 99% |
